Tested on: FDCP-Mix cells
Assay: in vitro chemotactic assay of FDCP-Mix cells in 96-transwell chambers
Format: cell-based
Details: migration for 14 h
Protocol: Figure: FDCP-Mix cells were subjected to in vitro chemotactic assays. Chemotaxis was assessed in 96-transwell chambers (Neuroprobe, Cabin John, MD) by using polyvinylpyrrolidone-free polycarbonate membranes (Nucleopore, Neuroprobe) with 5-μm pores. Four hundred microliters of IMDM medium was added to the bottom of the well, and was supplemented with varying concentrations of SDF-1α or MIP-3α (R&D Systems). 100 μl of IMDM medium containing 50.000 FDCP-Mix cells were added to the upper wells of the chemotaxis chamber. Additionally 100 μl of medium either with no supplement or supplemented with MIP-3α was added to the upper well. […] Simultaneously FDCP-Mix progenitor cells were coincubated with MIP-3α in concentrations of 10 to 1000 ng/ml medium.

“MIP-3α: Macrophage Inflammatory Protein - 3α, CCR6 ligand (R&D Systems)” was tested, and the “Chemotactic migration of FDCP-Mix progenitor cells” value (MIP-3a in the bottom well, 10 to 1000 ng/ml medium) was “does not induce chemotactic migration” and the “Sensitivity of FDCP-Mix cells to migrate to SDF-1α” value (SDF-1a 10 ng/ml in bottom well, cells coincubated with agonist (MIP-3α 10 to 1000 ng/ml medium)) was “does increase the sensitivity”.

Source: patent US20070155663A1, “Use of chemokine receptor agonists for stem cell transplantation” (priority 2003, published 2007)
